# Source: publication PMC9370560, “5-Demethoxy-10′-ethoxyexotimarin F, a New Coumarin with MAO-B Inhibitory Potential from Murraya exotica L” (Molecules, 2022)
# Like-named read-outs stand apart in the source and are kept apart here.
# Tests used:
# [1] = system: LPS-induced NO production in RAW264.7 cells; assay: Anti-inflammatory assay: inhibition of LPS-induced NO production; type: cell-based
# MAO-B [2] = biological target: T1, MAO-B (Homo sapiens, UniProt P27338); settings: previous studies of the authors; read-out: IC50 against MAO-B; cited from earlier work
# T1 sequence (P27338 1-520): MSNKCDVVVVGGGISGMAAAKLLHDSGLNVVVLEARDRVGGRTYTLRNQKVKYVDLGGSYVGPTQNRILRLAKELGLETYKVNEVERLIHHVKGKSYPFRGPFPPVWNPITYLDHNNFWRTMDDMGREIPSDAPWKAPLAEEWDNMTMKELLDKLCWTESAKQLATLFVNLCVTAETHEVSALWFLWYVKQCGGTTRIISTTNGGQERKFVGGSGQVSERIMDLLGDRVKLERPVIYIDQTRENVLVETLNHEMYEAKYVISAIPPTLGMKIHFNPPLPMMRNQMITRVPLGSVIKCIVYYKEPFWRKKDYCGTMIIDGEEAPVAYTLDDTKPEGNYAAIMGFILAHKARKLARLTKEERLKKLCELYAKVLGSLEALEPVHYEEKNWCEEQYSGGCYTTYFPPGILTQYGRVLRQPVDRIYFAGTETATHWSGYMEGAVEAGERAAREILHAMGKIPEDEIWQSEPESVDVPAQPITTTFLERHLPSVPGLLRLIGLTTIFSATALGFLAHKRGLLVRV
# [3] = system: T2, butyrylcholinesterase (BuChE); assay: Butyrylcholinesterase inhibitory activity (Ellman's method); type: biochemical, human; settings: 50 μM
# T2 construct: acetylcholinesterase and butyrylcholinesterase derived from human erythrocytes; purchased Sigma Chemical (St. Louis, MO, USA); host or cells: human erythrocytes (so in the source)
# Protocol: (§1) S-Acetylthiocholine iodide, S-butyrylthiocholineiodide, 5,5′-dithio-bis-(2-nitrobenzoic) acid (DTNB, Ellman’s reagent), acetylcholinesterase and butyrylcholinesterase derived from human erythrocytes were purchased from Sigma Chemical (St. Louis, MO, USA). The compounds were dissolved in DMSO. The reaction mixture (totally 200 μL) containing phosphate buffer (pH 8.0), test compound (50 μM), and acetyl cholinesterase (0.02 U/mL) or butyrylcholinesterase (0.016 U/mL), was incubated for 20 min (37 °C). […] All of the reactions were performed in triplicate. The percentage inhibition was calculated as follows: % inhibition = (E − S)/E × 100 (E is the activity of the enzyme without test compound, and S is the activity of the enzyme with test compound).
# MAO-A = biological target: T3, MAO-A (Homo sapiens, UniProt P21397); assay: biochemical; settings: mean ± S.E.M. from three experiments
# T3 sequence (P21397 1-527): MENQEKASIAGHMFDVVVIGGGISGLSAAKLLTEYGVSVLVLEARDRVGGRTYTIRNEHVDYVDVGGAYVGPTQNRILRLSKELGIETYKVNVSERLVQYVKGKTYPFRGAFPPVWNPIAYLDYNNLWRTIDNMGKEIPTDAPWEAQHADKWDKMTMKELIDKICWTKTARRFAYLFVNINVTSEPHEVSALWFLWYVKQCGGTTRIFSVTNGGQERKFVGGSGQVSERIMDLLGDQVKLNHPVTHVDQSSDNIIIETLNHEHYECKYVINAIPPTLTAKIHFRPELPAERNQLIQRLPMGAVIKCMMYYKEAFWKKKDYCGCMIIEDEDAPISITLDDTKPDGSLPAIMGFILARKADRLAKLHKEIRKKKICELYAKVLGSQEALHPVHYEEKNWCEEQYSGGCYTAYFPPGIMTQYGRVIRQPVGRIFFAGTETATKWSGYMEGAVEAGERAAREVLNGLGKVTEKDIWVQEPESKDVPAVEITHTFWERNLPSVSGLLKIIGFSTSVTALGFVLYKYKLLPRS
# [4] = system: Pseudomonas aeruginosa (ATCC27853); assay: Antimicrobial assay (broth dilution and Oxford cup method); type: cell-based; settings: 100 μM
# Excerpt: (§2) The broth dilution method and Oxford cup method were used to detect antimicrobial activity against reference strains, including Salmonella enterica subsp. enterica (ATCC14028), Staphylococcus aureus subsp. aureus (ATCC29213), Escherichia coli (ATCC25922), Pseudomonas aeruginosa (ATCC27853), and Candida albicans (ATCC10231). Ceftazidime and penicillin G sodium and amphotericin B served as an antibacterial and antifungal positive control, respectively.
# [5] = system: Escherichia coli (ATCC25922); assay: as above; type: cell-based; settings: 100 μM
# Excerpt: as §2
# [6] = system: Candida albicans (ATCC10231); assay: as above; type: cell-based; settings: 100 μM
# Excerpt: as §2
# MAO-B [7] = biological target: T1, MAO-B; assay: biochemical
# [8] = system: acetylcholinesterase (AChE); settings: 50 μM
# Protocol: as §1
# [9] = system: Staphylococcus aureus (ATCC29213); assay: Antimicrobial assay (broth dilution and Oxford cup method); type: cell-based, Staphylococcus aureus subsp. aureus; settings: 100 μM
# Excerpt: as §2
# [10] = system: Salmonella enterica (ATCC14028); assay: as above; type: cell-based, Salmonella enterica subsp. enterica; settings: 100 μM
# Excerpt: as §2
# α-glucosidase = assay: α-Glucosidase inhibition assay (4-NPGP); type: biochemical
# Protocol: An enzyme inhibitor screening model was chosen using 4-nitro-phenol-α-D-glucopyranoside (4-NPGP) and slightly modified. Briefly, the test compound (50 μM), α-glucosidase solution (0.025 U/mL), phosphate buffer (pH 6.9), and (4-NPGP) (1 μM) were incubated in 96-well plates at 37 °C for 50 min. […] Quercetin was selected as the positive control. All of the reactions were repeated three times.
compound,measurement,setting,value
"[H]/N=C(/NC)NCCC[C@H](N)C(=O)O [L-NMMA, NG-monomethyl-L-arginine, reference compound]",inhibition against LPS-induced NO production,[1],56.13%
COc1c(OC/C=C(\C)C[C@@H]2C=C(CCC(N)=O)C(=O)O2)ccc2ccc(=O)oc12 [anisucoumaramide],IC50,MAO-B [2],143.7 ± 0.9 nM
"C=C(C)[C@H](O)[C@@H](OCC)c1c(OC)ccc(/C=C/C(=O)O[C@H](Cc2c(OC)ccc3ccc(=O)oc23)C(C)(C)O)c1O [Compound 1, (E)-(R)-3-hydroxy-1-(7-methoxy-2-oxo-2H-chromen-8-yl)-3-methylbutan-2-yl·3-(3-((1S, 2S)-1-ethoxy-2-hydroxy-3-methylbut-3-en-1-yl)-2-hydroxy-4-methoxyphenyl)acrylate]",BuChE inhibitory activity,[3],did not show any inhibitory activity
same,inhibition against LPS-induced NO production,[1],34.59%
same,IC50,MAO-A,26300 ± 1030 nM
same,inhibitory effect against Pseudomonas aeruginosa (ATCC27853),[4],did not lead to a significant inhibitory effect
same,inhibitory effect against Escherichia coli (ATCC25922),[5],did not lead to a significant inhibitory effect
same,inhibitory effect against Candida albicans (ATCC10231),[6],did not lead to a significant inhibitory effect
same,SI: MAO-B selectivity index = IC50 (MAO-A)/IC50 (MAO-B),MAO-B [7],172
same,IC50,MAO-B [7]; mean ± S.E.M. from three experiments,153 ± 1.58 nM
same,AChE inhibitory activity,[8],did not show any inhibitory activity
same,inhibitory effect against Staphylococcus aureus (ATCC29213),[9],did not lead to a significant inhibitory effect
same,inhibitory effect against Salmonella enterica (ATCC14028),[10],did not lead to a significant inhibitory effect
same,α-glucosidase percentage of inhibition,α-glucosidase; 50 μM,less than 50%
"O=c1c(O)c(-c2ccc(O)c(O)c2)oc2cc(O)cc(O)c12 [quercetin, reference compound]",α-glucosidase inhibition (positive control),α-glucosidase; concentration not given,53.17%
